Results from patent US8455534B2, “Estrogen receptor modulators and uses thereof” (Aragon Pharmaceuticals, Inc., priority 2010, dated 2013).

Assays:
[1] = test system: MCF-7 cells; test: Breast Cancer Cell Viability Assay (MCF-7, CellTiter-Glo); assay type: cell-based; conditions: 5 days' compound exposure; for IC50: Homo sapiens, MCF7, 120 h
Method in brief: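 Eleven-point semilog compound series, final 0.3-0.000003 μM, added to overnight-adhered MCF-7 cells (320/well; RPMI, 10% FBS, 20 mM HEPES) for 5 days. Viability read by CellTiter-Glo luminescence, background from medium without cells subtracted, expressed relative to untreated cells.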

[2] = molecular target: T1, ER-α (Homo sapiens, UniProt P03372); test: Breast Cancer Cell ER-α In Cell Western Assay (SP1); assay type: cell-based; conditions: MCF-7 cells, SP1 antibody, 4 or 24 hr post compound addition; for Emax: MCF7, read-out: ER-α In Cell Western Assay (SP1) Max Response; for DC50: read-out: ER-α In Cell Western Assay (SP1) IC50
T1 sequence (P03372 1-595): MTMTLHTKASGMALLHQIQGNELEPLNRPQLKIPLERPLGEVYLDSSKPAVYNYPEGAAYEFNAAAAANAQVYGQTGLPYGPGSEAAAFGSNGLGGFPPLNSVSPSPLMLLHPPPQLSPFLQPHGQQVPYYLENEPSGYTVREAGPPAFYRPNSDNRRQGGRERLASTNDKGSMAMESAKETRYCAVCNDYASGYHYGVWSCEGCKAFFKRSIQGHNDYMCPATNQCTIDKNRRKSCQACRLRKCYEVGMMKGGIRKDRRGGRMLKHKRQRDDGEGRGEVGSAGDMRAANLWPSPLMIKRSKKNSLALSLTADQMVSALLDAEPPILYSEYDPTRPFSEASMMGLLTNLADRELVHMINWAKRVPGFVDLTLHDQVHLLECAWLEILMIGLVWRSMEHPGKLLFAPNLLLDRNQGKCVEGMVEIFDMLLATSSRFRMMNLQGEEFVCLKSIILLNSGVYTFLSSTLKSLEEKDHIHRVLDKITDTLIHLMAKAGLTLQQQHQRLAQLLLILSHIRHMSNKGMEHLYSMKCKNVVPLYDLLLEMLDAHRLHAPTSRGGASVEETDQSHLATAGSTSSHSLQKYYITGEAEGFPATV
Method in brief: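 ER-α protein levels measured by in-cell western with SP1 antibody, ratioed to DRAQ5 DNA signal and given as percent of untreated controls. Compounds added at 0.3–0.000003 μM final (eleven semilog points) to adherent MCF-7 cells in stripped serum; exposure 4 or 24 h before fixation.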

**Q.** Which “MCF7 Viability Assay Max Response” value [1] does the source give for `O=C(O)/C=C/c1ccc(/C(=C(/CCCl)c2ccccc2)c2ccc3[nH]ncc3c2F)cc1` [Compound 76, (E)-3-(4-((E)-4-Chloro-1-(4-fluoro-1H-indazol-5-yl)-2-phenylbut-1-en-1-yl)phenyl)acrylic acid] here?
**A.** The value was “++ (++ = a single % value ≧ 40%)”.

**Q.** What about the IC50 [1] of the same compound?
**A.** The IC50 was no more than 100 nM.

**Q.** What about the Emax [2] of the same compound?
**A.** Its Emax is no less than 40%.

**Q.** What about the DC50 [2] of the same compound?
**A.** Its DC50 is no more than 100 nM.

**Q.** What does the source list for `O=C(O)/C=C/c1ccc(/C(=C(/CCCl)c2ccc(F)cc2Cl)c2ccc3[nH]ncc3c2F)cc1` [Compound 77, (E)-3-(4-((E)-4-Chloro-2-(2-chloro-4-fluorophenyl)-1-(4-fluoro-1H-indazol-5-yl)but-1-en-1-yl)phenyl)acrylic acid]?
**A.** MCF7 Viability Assay Max Response [1]: ++ (++ = a single % value ≧ 40%); IC50 [1]: ≤ 100 nM; Emax [2]: ≥ 40%; DC50 [2]: ≤ 100 nM

**Q.** With `O=C(O)/C=C/c1ccc(/C(=C(/CCF)c2ccc(F)cc2)c2ccc3[nH]ncc3c2)cc1` [Compound 78, (E)-3-(4-((E)-4-Fluoro-2-(4-fluorophenyl)-1-(1H-indazol-5-yl)but-1-en-1-yl)phenyl)acrylic acid] as the compound, how does the “MCF7 Viability Assay Max Response” value [1] read?
**A.** Its value is “++ (++ = a single % value ≧ 40%)”.

**Q.** And the IC50 [1]?
**A.** Its IC50 is no more than 100 nM.

**Q.** What about the Emax [2] of the same compound?
**A.** Its Emax is no less than 40%.

**Q.** What about the DC50 [2] of the same compound?
**A.** Its DC50 is no more than 100 nM.

**Q.** Which results are given for `O=C(O)/C=C/c1ccc(/C(=C(/CCF)c2ccccc2)c2ccc3[nH]ncc3c2F)cc1` [Compound 79, (E)-3-(4-((E)-4-Fluoro-1-(4-fluoro-1H-indazol-5-yl)-2-phenylbut-1-en-1-yl)phenyl)acrylic acid]?
**A.** MCF7 Viability Assay Max Response [1]: ++ (++ = a single % value ≧ 40%); IC50 [1]: ≤ 100 nM; Emax [2]: ≥ 40%; DC50 [2]: ≤ 100 nM

**Q.** Which results are given for `COCCC/C(=C(/c1ccc(/C=C/C(=O)O)cc1)c1ccc2[nH]ncc2c1)c1ccccc1` [Compound 80, (E)-3-(4-((E)-1-(1H-Indazol-5-yl)-5-methoxy-2-phenylpent-1-en-1-yl)phenyl)acrylic acid]?
**A.** MCF7 Viability Assay Max Response [1]: ++ (++ = a single % value ≧ 40%); IC50 [1]: > 100 nM; Emax [2]: ≥ 40%; DC50 [2]: ≤ 100 nM

**Q.** What does the source list for `COCCCC/C(=C(/c1ccc(/C=C/C(=O)O)cc1)c1ccc2[nH]ncc2c1)c1ccccc1` [Compound 81, (E)-3-(4-((E)-1-(1H-Indazol-5-yl)-6-methoxy-2-phenylhex-1-en-1-yl)phenyl)acrylic acid]?
**A.** MCF7 Viability Assay Max Response [1]: ++ (++ = a single % value ≧ 40%); IC50 [1]: > 100 nM; Emax [2]: ≥ 40%; DC50 [2]: ≤ 100 nM

**Q.** Which results are given for `CC(C)/C(=C(/c1ccc(/C=C/C(=O)O)cc1)c1ccc2[nH]ncc2c1)c1ccc(F)cc1Cl` [Compound 82, (E)-3-(4-((E)-2-(2-Chloro-4-fluorophenyl)-1-(1H-indazol-5-yl)-3-methylbut-1-en-1-yl)phenyl)acrylic acid]?
**A.** MCF7 Viability Assay Max Response [1]: ++ (++ = a single % value ≧ 40%); IC50 [1]: ≤ 100 nM; Emax [2]: ≥ 40%; DC50 [2]: ≤ 100 nM

**Q.** Which results are given for `CC/C(=C(/c1ccc(/C=C/C(=O)O)cc1)c1ccc2[nH]ncc2c1)c1cccc(OC(F)(F)F)c1` [Compound 83, (E)-3-(4-((E)-1-(1H-Indazol-5-yl)-2-(3-(trifluoromethoxy)phenyl)but-1-en-1-yl)phenyl)acrylic acid]?
**A.** MCF7 Viability Assay Max Response [1]: ++ (++ = a single % value ≧ 40%); IC50 [1]: ≤ 100 nM; Emax [2]: ≥ 40%; DC50 [2]: ≤ 100 nM

**Q.** For `O=C(O)/C=C/c1ccc(/C(=C(\c2ccccc2)C2CCC2)c2ccc3[nH]ncc3c2)cc1` [Compound 84, (E)-3-(4-((E)-2-Cyclobutyl-1-(1H-indazol-5-yl)-2-phenylvinyl)phenyl)acrylic acid], which “MCF7 Viability Assay Max Response” value [1] is on record?
**A.** The value was “++ (++ = a single % value ≧ 40%)”.

**Q.** What about the IC50 [1] of the same compound?
**A.** The IC50 was no more than 100 nM.

**Q.** What about the Emax [2] of the same compound?
**A.** Its Emax is no less than 40%.

**Q.** And the DC50 [2]?
**A.** Its DC50 is no more than 100 nM.

**Q.** `O=C(O)/C=C/c1ccc(/C(=C(\c2ccc(F)cc2Cl)C2CCC2)c2ccc3[nH]ncc3c2)cc1` [Compound 85, (E)-3-(4-((E)-2-(2-Chloro-4-fluorophenyl)-2-cyclobutyl-1-(1H-indazol-5-yl)vinyl)phenyl)acrylic acid] was tested. Which “MCF7 Viability Assay Max Response” value [1] did it give?
**A.** Its value is “++ (++ = a single % value ≧ 40%)”.

**Q.** What about the IC50 [1] of the same compound?
**A.** Its IC50 is no more than 100 nM.

**Q.** And the Emax [2]?
**A.** Its Emax is no less than 40%.

**Q.** And the DC50 [2]?
**A.** Its DC50 is no more than 100 nM.

**Q.** For `CC/C(=C(/c1ccc(/C=C/C(=O)O)cc1)c1ccc2[nH]nc(F)c2c1)c1ccccc1` [Compound 86, (E)-3-(4-((E)-1-(3-Fluoro-1H-indazol-5-yl)-2-phenylbut-1-en-1-yl)phenyl)acrylic acid], which “MCF7 Viability Assay Max Response” value [1] is on record?
**A.** Its value is “++ (++ = a single % value ≧ 40%)”.

**Q.** And the IC50 [1]?
**A.** Its IC50 is no more than 100 nM.

**Q.** What about the Emax [2] of the same compound?
**A.** The Emax was no less than 40%.

**Q.** And the DC50 [2]?
**A.** Its DC50 is no more than 100 nM.

**Q.** With `O=C(O)/C=C/c1ccc(/C(=C(\c2ccccc2)C2CCC2)c2ccc3[nH]nc(F)c3c2)cc1` [Compound 87, (E)-3-(4-((E)-2-Cyclobutyl-1-(3-fluoro-1H-indazol-5-yl)-2-phenylvinyl)phenyl)acrylic acid] as the compound, how does the “MCF7 Viability Assay Max Response” value [1] read?
**A.** Its value is “++ (++ = a single % value ≧ 40%)”.

**Q.** What about the IC50 [1] of the same compound?
**A.** The IC50 was no more than 100 nM.

**Q.** And the Emax [2]?
**A.** Its Emax is no less than 40%.

**Q.** And the DC50 [2]?
**A.** Its DC50 is no more than 100 nM.

**Q.** Which results are given for `CC/C(=C(/c1ccc(/C=C/C(=O)O)cc1)c1ccc2[nH]nc(F)c2c1)c1ccc(F)cc1Cl` [Compound 88, (E)-3-(4-((E)-2-(2-Chloro-4-fluorophenyl)-1-(3-fluoro-1H-indazol-5-yl)but-1-en-1-yl)phenyl)acrylic acid]?
**A.** MCF7 Viability Assay Max Response [1]: ++ (++ = a single % value ≧ 40%); IC50 [1]: ≤ 100 nM; Emax [2]: ≥ 40%; DC50 [2]: ≤ 100 nM

**Q.** How did the “MCF7 Viability Assay Max Response” value [1] turn out when `O=C(O)/C=C/c1ccc(/C(=C(\c2ccc(F)cc2Cl)C2CCC2)c2ccc3[nH]nc(F)c3c2)cc1` [Compound 89, (E)-3-(4-((E)-2-(2-Chloro-4-fluorophenyl)-2-cyclobutyl-1-(3-fluoro-1H-indazol-5-yl)vinyl)phenyl)acrylic acid] was run?
**A.** Its value is “++ (++ = a single % value ≧ 40%)”.

**Q.** What about the IC50 [1] of the same compound?
**A.** Its IC50 is no more than 100 nM.

**Q.** What about the Emax [2] of the same compound?
**A.** The Emax was no less than 40%.

**Q.** And the DC50 [2]?
**A.** Its DC50 is no more than 100 nM.

**Q.** `CCOC(=O)/C=C/c1ccc(/C(=C(/CC)c2ccc(F)cc2)c2ccc3[nH]ncc3c2)cc1` [Compound 90, (E)-Ethyl 3-(4-((E)-2-(4-fluorophenyl)-1-(1H-indazol-5-yl)but-1-en-1-yl)phenyl)acrylate] was tested. Which “MCF7 Viability Assay Max Response” value [1] did it give?
**A.** The value was “+ (+ = a single % value < 40%)”.

**Q.** And the IC50 [1]?
**A.** The IC50 was no more than 100 nM.

**Q.** What about the Emax [2] of the same compound?
**A.** Its Emax is no less than 40%.

**Q.** What about the DC50 [2] of the same compound?
**A.** The DC50 was no more than 100 nM.

**Q.** With `CC/C(=C(/c1ccc(/C=C/C(=O)O)cc1)c1ccc2[nH]ncc2c1)c1cccc(O)c1` [Compound 93, (E)-3-(4-((E)-2-(3-Hydroxyphenyl)-1-(1H-indazol-5-yl)but-1-en-1-yl)phenyl)acrylic acid] as the compound, how does the “MCF7 Viability Assay Max Response” value [1] read?
**A.** The value was “++ (++ = a single % value ≧ 40%)”.

**Q.** What about the IC50 [1] of the same compound?
**A.** The IC50 was no more than 100 nM.

**Q.** And the Emax [2]?
**A.** The Emax was no less than 40%.

**Q.** What about the DC50 [2] of the same compound?
**A.** Its DC50 is no more than 100 nM.

**Q.** How did the “MCF7 Viability Assay Max Response” value [1] turn out when `CC/C(=C(/c1ccc(/C=C/C(=O)O)cc1)c1ccc2[nH]ncc2c1)c1ccccc1O` [Compound 94, (E)-3-(4-((E)-2-(2-Hydroxyphenyl)-1-(1H-indazol-5-yl)but-1-en-1-yl)phenyl)acrylic acid] was run?
**A.** Its value is “++ (++ = a single % value ≧ 40%)”.

**Q.** What about the IC50 [1] of the same compound?
**A.** The IC50 was greater than 100 nM.

**Q.** What about the Emax [2] of the same compound?
**A.** Its Emax is no less than 40%.

**Q.** And the DC50 [2]?
**A.** The DC50 was no more than 100 nM.

**Q.** Which “MCF7 Viability Assay Max Response” value [1] does the source give for `CC/C(=C(/c1ccc(/C=C/C(=O)O)cc1)c1ccc2[nH]ncc2c1)c1ccc(O)cc1` [Compound 95, (E)-3-(4-((E)-2-(4-Hydroxyphenyl)-1-(1H-indazol-5-yl)but-1-en-1-yl)phenyl)acrylic acid] here?
**A.** The value was “++ (++ = a single % value ≧ 40%)”.

**Q.** What about the IC50 [1] of the same compound?
**A.** The IC50 was no more than 100 nM.

**Q.** And the Emax [2]?
**A.** Its Emax is no less than 40%.

**Q.** And the DC50 [2]?
**A.** Its DC50 is no more than 100 nM.
